Results published in patent US9663528B2, “Substituted 1,2,3,4,6,8,12,12a-octahydro-1,4-methanodipyrido[1,2-a:1',2'-d]pyrazines and methods for treating viral infections” (priority 2012, dated 2017).
Where two headings read alike, the source gives them in different places.

What was measured:
PXR = PXR (Homo sapiens (Human), UniProt O75469); assay: Human PXR activation assay (luciferase reporter gene assay, DPX2 cells); type: cell-based; settings: human
Experimental: A stably transformed tumor cell line (DPX2) was plated on 96-well microtiter plates. DPX2 cells harbor the human PXR gene (NR112) and a luciferase reporter gene linked to two promoters identified in the human CYP3A4 gene, namely XREM and PXRE. […] The number of viable cells was determined and the reporter gene activity was assessed. Positive control: […]

in vitro = settings: human
Experimental: For the antiviral assay utilizing MT4 cells, 0.4 μL of […] test concentration of 3-fold serially diluted compound in DMSO was added to 40 μL of cell growth medium (RPMI 1640, 10% FBS, 1% penicilline/Streptomycine, 1% L-Glutamine, 1% HEPES) in each well of 384-well assay plates (10 concentrations) in quidruplicate.
1 mL aliquots of 2×10^6 MT4 cells are pre-infected for 1 and 3 hours respectively at 37° C. with 25 μL (MT4) or of either cell growth medium (mock-infected) or a fresh 1:250 dilution of an HIV-IIIb concentrated ABI stock (0.004 m.o.i. for MT4 cells). Infected and uninfected cells are diluted in cell growth medium and 35 μL of 2000 (for MT4) cells is added to each well of the assay plates.
Assay plates were then incubated in a 37° C. incubator. After 5 days of incubation, 25 μL of 2× concentrated CellTiter-Glo™ Reagent (catalog #G7573, Promega Biosciences, Inc., Madison, Wis.) was added to each well of the assay plate. Cell lysis was carried out by incubating at room temperature for 2-3 minutes, and then chemiluminescence was read using the Envision reader (PerkinElmer).

PXR, sequence (O75469 whole entry): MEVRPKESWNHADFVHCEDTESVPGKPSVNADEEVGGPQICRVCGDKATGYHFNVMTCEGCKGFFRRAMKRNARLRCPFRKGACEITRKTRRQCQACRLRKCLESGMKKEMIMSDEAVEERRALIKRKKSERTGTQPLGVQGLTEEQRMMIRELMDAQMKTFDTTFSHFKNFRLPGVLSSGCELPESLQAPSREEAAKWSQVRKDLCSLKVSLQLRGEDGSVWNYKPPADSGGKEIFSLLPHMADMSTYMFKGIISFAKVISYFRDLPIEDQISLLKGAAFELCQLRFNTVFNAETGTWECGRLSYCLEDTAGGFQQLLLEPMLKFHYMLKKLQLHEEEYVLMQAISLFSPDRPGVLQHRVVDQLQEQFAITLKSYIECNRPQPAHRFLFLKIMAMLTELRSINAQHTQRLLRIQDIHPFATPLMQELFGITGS

SMILES | Emax at 24 h, 15 µM (PXR) [%] | CC50 at 5 days (in vitro; CC50 nM in MT-4) [nM] | Emax at 24 h, 15 µM (PXR; 15 μM, relative to maximum fold induction by 10 or 20 μM rifampicin, DPX2 cells, 24 hours, read-out: % Emax at 15 μM) [%] | CC50 at 5 days (in vitro; MT-4 cells, mock-infected, CC50 nM in MT-4, MT-4 cells, 5 days incubation) [nM]
O=C(NC1(c2ccc(F)cc2F)CC1)c1cn2c(c(O)c1=O)C(=O)N1C(C2)O[C@@H]2CCC[C@H]1C2 (stereo partly drawn) [Compound 29, (2R,6S)-N-(1-(2,4-difluorophenyl)cyclopropyl)-9-hydroxy-8,10-dioxo-3,4,5,6,8,10,14,14a-octahydro-2H-2,6-methanopyrido[1′,2′:4,5]pyrazino[2,1-b][1,3]oxazocine-11-carboxamide] | 3 | 9450 | – | –
O=C(NC1(c2ccc(F)cc2F)CCC1)c1cn2c(c(O)c1=O)C(=O)N1C(C2)O[C@H]2CC[C@@H]1C2 (stereo partly drawn) [Compound 32, (2S,5R)-N-(1-(2,4-difluorophenyl)cyclobutyl)-8-hydroxy-7,9-dioxo-2,3,4,5,7,9,13,13a-octahydro-2,5-methanopyrido[1′,2′:4,5]pyrazino[2,1-b][1,3]oxazepine-10-carboxamide] | 14 | 4680 | – | –
O=C(NC1(c2ccc(F)cc2F)CCCC1)c1cn2c(c(O)c1=O)C(=O)N1C(C2)O[C@H]2CC[C@@H]1C2 (stereo partly drawn) [Compound 33, (2S,5R)-N-(1-(2,4-difluorophenyl)cyclopentyl)-8-hydroxy-7,9-dioxo-2,3,4,5,7,9,13,13a-octahydro-2,5-methanopyrido[1′,2′:4,5]pyrazino[2,1-b][1,3]oxazepine-10-carboxamide] | 17 | 3970 | – | –
C[C@H]1CO[C@@H]2Cn3cc(C(=O)NC4(c5ccc(F)cc5F)CC4)c(=O)c(O)c3C(=O)N12 [Compound 37, (3S,11aR)-N-(1-(2,4-difluorophenyl)cyclopropyl)-6-hydroxy-3-methyl-5,7-dioxo-2,3,5,7,11,11a-hexahydrooxazolo[3,2-a]pyrido[1,2-d]pyrazine-8-carboxamide] | – | – | 2 | 19500
C[C@@H](NC(=O)c1cn2c(c(O)c1=O)C(=O)N1[C@H]3CC[C@H](C3)[C@@H]1C2)c1ccc(F)cc1F [Compound 43, (12aR)-N—((R)-1-(2,4-difluorophenyl)ethyl)-7-hydroxy-6,8-dioxo-1,2,3,4,6,8,12,12a-octahydro-1,4-methanodipyrido[1,2-a:1′,2′-d]pyrazine-9-carboxamide] | 18 | 10300 | – | –
O=C(NCc1ccc(F)c(F)c1F)c1cn2c(c(O)c1=O)C(=O)N1[C@@H]3CC[C@@H](C3)O[C@H]1C2 [Compound 44, (13aS)-8-hydroxy-7,9-dioxo-N-(2,3,4-trifluorobenzyl)-2,3,4,5,7,9,13,13a-octahydro-2,5-methanopyrido[1′,2′:4,5]pyrazino[2,1-b][1,3]oxazepine-10-carboxamide] | 4 | 9870 | – | –
O=C(NCc1c(F)cccc1F)c1cn2c(c(O)c1=O)C(=O)N1[C@@H]3CC[C@@H](C3)O[C@H]1C2 [Compound 46, (13aS)-N-(2,6-difluorobenzyl)-8-hydroxy-7,9-dioxo-2,3,4,5,7,9,13,13a-octahydro-2,5-methanopyrido[1′,2′:4,5]pyrazino[2,1-b][1,3]oxazepine-10-carboxamide] | 34 | 19300 | – | –
O=C(N[C@@H](c1ccc(F)cc1F)C(F)(F)F)c1cn2c(c(O)c1=O)C(=O)N1C(C2)O[C@@H]2CC[C@H]1C2 (stereo partly drawn) [Compound 54, (2R,5S)-N—((S)-1-(2,4-difluorophenyl)-2,2,2-trifluoroethyl)-8-hydroxy-7,9-dioxo-2,3,4,5,7,9,13,13a-octahydro-2,5-methanopyrido[1′,2′:4,5]pyrazino[2,1-b][1,3]oxazepine-10-carboxamide] | 2 | 3240 | – | –
O=C(NCc1c(F)cc(F)cc1F)c1cn2c(c(O)c1=O)C(=O)N1[C@@H]3C[C@H]([C@@H]1C2)C(F)(F)C3 [Compound 57, (1R,4R,12aR)-2,2-difluoro-7-hydroxy-6,8-dioxo-N-(2,4,6-trifluorobenzyl)-1,2,3,4,6,8,12,12a-octahydro-1,4-methanodipyrido[1,2-a:1′,2′-d]pyrazine-9-carboxamide] | 3 | 11800 | – | –
O=C(NCc1ccc(F)c(Cl)c1F)c1cn2c(c(O)c1=O)C(=O)N1[C@@H]3C[C@H]([C@@H]1C2)C(F)(F)C3 [Compound 58, (1R,4R,12aR)-N-(3-chloro-2,4-difluorobenzyl)-2,2-difluoro-7-hydroxy-6,8-dioxo-1,2,3,4,6,8,12,12a-octahydro-1,4-methanodipyrido[1,2-a:1′,2′-d]pyrazine-9-carboxamide] | 1 | 7690 | – | –
O=C(NCc1c(F)cc(F)cc1F)c1cn2c(c(O)c1=O)C(=O)N1[C@@H]3C[C@@H]([C@H](F)C3)[C@@H]1C2 [Compound 59, (1R,2R,4R,12aR)-2-fluoro-7-hydroxy-6,8-dioxo-N-(2,4,6-trifluorobenzyl)-1,2,3,4,6,8,12,12a-octahydro-1,4-methanodipyrido[1,2-a:1′,2′-d]pyrazine-9-carboxamide] | 4 | 22200 | – | –
O=C(NCc1cccc(Cl)c1Cl)c1cn2c(c(O)c1=O)C(=O)N1[C@H]3CC[C@H](C3)[C@@H]1C2 [Compound 60, (1R,4S,12aR)-N-(2,3-dichlorobenzyl)-7-hydroxy-6,8-dioxo-1,2,3,4,6,8,12,12a-octahydro-1,4-methanodipyrido[1,2-a:1′,2′-d]pyrazine-9-carboxamide] | 3 | 3310 | – | –
O=C(NCc1ccc(F)c(Cl)c1F)c1cn2c(c(O)c1=O)C(=O)N1[C@H]3CC[C@H](C3)[C@H]1C2 [Compound 61, (1R,4S,12aS)-N-(3-chloro-2,4-difluorobenzyl)-7-hydroxy-6,8-dioxo-1,2,3,4,6,8,12,12a-octahydro-1,4-methanodipyrido[1,2-a:1′,2′-d]pyrazine-9-carboxamide] | 1 | 25900 | – | –
O=C(NCc1ccc(F)c(F)c1)c1cn2c(c(O)c1=O)C(=O)N1[C@H]3CC[C@H](C3)[C@@H]1C2 [Compound 66, (1R,4S,12aR)-N-(3,4-difluorobenzyl)-7-hydroxy-6,8-dioxo-1,2,3,4,6,8,12,12a-octahydro-1,4-methanodipyrido[1,2-a:1′,2′-d]pyrazine-9-carboxamide] | 0 | 11800 | – | –
O=C(NCc1ccc(F)cc1C(F)(F)F)c1cn2c(c(O)c1=O)C(=O)N1[C@H]3CC[C@H](C3)[C@@H]1C2 [Compound 67, (1R,4S,12aR)-N-(4-fluoro-2-(trifluoromethyl)benzyl)-7-hydroxy-6,8-dioxo-1,2,3,4,6,8,12,12a-octahydro-1,4-methanodipyrido[1,2-a:1′,2′-d]pyrazine-9-carboxamide] | 0 | 2980 | – | –
O=C(NCc1ccc(F)cc1Cl)c1cn2c(c(O)c1=O)C(=O)N1[C@H]3CC[C@H](C3)[C@@H]1C2 [Compound 68, (1R,4S,12aR)-N-(2-chloro-4-fluorobenzyl)-7-hydroxy-6,8-dioxo-1,2,3,4,6,8,12,12a-octahydro-1,4-methanodipyrido[1,2-a:1′,2′-d]pyrazine-9-carboxamide] | 6 | 4180 | – | –
O=C(NCc1ccc(F)c(Cl)c1F)c1cn2c(c(O)c1=O)C(=O)N1[C@H]3CC[C@H](C3)[C@@H]1C2 [Compound 69, (1R,4S,12aR)-N-(3-chloro-2,4-difluorobenzyl)-7-hydroxy-6,8-dioxo-1,2,3,4,6,8,12,12a-octahydro-1,4-methanodipyrido[1,2-a:1′,2′-d]pyrazine-9-carboxamide] | 5 | 4770 | – | –
Cc1cccc(CNC(=O)c2cn3c(c(O)c2=O)C(=O)N2[C@H]4CC[C@H](C4)[C@@H]2C3)c1F [Compound 70, (1R,4S,12aR)-N-(2-fluoro-3-methylbenzyl)-7-hydroxy-6,8-dioxo-1,2,3,4,6,8,12,12a-octahydro-1,4-methanodipyrido[1,2-a:1′,2′-d]pyrazine-9-carboxamide] | 10 | 8410 | – | –
O=C(NCc1c(Cl)ccc(Cl)c1F)c1cn2c(c(O)c1=O)C(=O)N1[C@H]3CC[C@H](C3)[C@@H]1C2 [Compound 71, (1R,4S,12aR)-N-(3,6-dichloro-2-fluorobenzyl)-7-hydroxy-6,8-dioxo-1,2,3,4,6,8, 12,12a-octahydro-1,4-methanodipyrido[1,2-a:1′,2′-d]pyrazine-9-carboxamide] | 3 | 4660 | – | –
O=C(NCc1cccc(Cl)c1)c1cn2c(c(O)c1=O)C(=O)N1[C@H]3CC[C@H](C3)[C@@H]1C2 [Compound 72, (1R,4S,12aR)-N-(3-chlorobenzyl)-7-hydroxy-6,8-dioxo-1,2,3,4,6,8,12,12a-octahydro-1,4-methanodipyrido[1,2-a:1′,2′-d]pyrazine-9-carboxamide] | 4 | 6260 | – | –
O=C(NCc1c(F)ccc(Cl)c1F)c1cn2c(c(O)c1=O)C(=O)N1[C@H]3CC[C@H](C3)[C@@H]1C2 [Compound 73, (1R,4S,12aR)-N-(3-chloro-2,6-difluorobenzyl)-7-hydroxy-6,8-dioxo-1,2,3,4,6,8,12,12a-octahydro-1,4-methanodipyrido[1,2-a:1′,2′-d]pyrazine-9-carboxamide] | 7 | 9190 | – | –
